Measured values published in ChEMBL document CHEMBL2346657, “Synthesis of novel 2-amino-4-(5'-substituted 2'-phenyl-1H-indol-3'-yl)-6-aryl-4H-pyran-3-carbonitrile derivatives as antimicrobial and antioxidant agents” (2013).
Calls of active or inactive are those of the source. Unless noted, the rule behind the calls is not given here.

Experiments:
Format in all cases: functional
Klebsiella pneumoniae [1] = assay: Antimicrobial activity against Klebsiella pneumoniae NCTC 13368 at 750 ug/ml after 24 hrs by cup plate method; conditions: NCTC 13368, 24 h, read-out: IZ
Escherichia coli [2] = assay: Antimicrobial activity against Escherichia coli MTCC 723 at 500 ug/ml after 24 hrs by cup plate method; conditions: MTCC 723, 24 h, read-out: IZ
Klebsiella pneumoniae [3] = assay: Antimicrobial activity against Klebsiella pneumoniae NCTC 13368 at 1000 ug/ml after 24 hrs by cup plate method; conditions: NCTC 13368, 24 h, read-out: IZ
Escherichia coli [4] = assay: Antimicrobial activity against Escherichia coli MTCC 723 at 1000 ug/ml after 24 hrs by cup plate method; conditions: MTCC 723, 24 h, read-out: IZ
Aspergillus niger [5] = assay: Antimicrobial activity against Aspergillus niger MTCC 281 at 500 ug/ml after 72 hrs by cup plate method; conditions: MTCC 281, 72 h, read-out: IZ
Klebsiella pneumoniae [6] = assay: Antimicrobial activity against Klebsiella pneumoniae NCTC 13368 at 500 ug/ml after 24 hrs by cup plate method; conditions: NCTC 13368, 24 h, read-out: IZ
Pseudomonas aeruginosa [7] = assay: Antimicrobial activity against Pseudomonas aeruginosa MTCC 1688 at 500 ug/ml after 24 hrs by cup plate method; conditions: MTCC 1688, 24 h, read-out: IZ
Staphylococcus aureus [8] = assay: Antimicrobial activity against Staphylococcus aureus ATCC 29513 at 500 ug/ml after 24 hrs by cup plate method; conditions: ATCC 29513, 24 h, read-out: IZ
[9] = tested on: Radical scavenging activity; assay: Antioxidant activity assessed as DPPH radical scavenging activity at 75 ug/ml
Pseudomonas aeruginosa [10] = assay: Antimicrobial activity against Pseudomonas aeruginosa MTCC 1688 at 1000 ug/ml after 24 hrs by cup plate method; conditions: MTCC 1688, 24 h, read-out: IZ
Aspergillus terreus [11] = assay: Antimicrobial activity against Aspergillus terreus MTCC 1782 at 1000 ug/ml after 72 hrs by cup plate method; conditions: MTCC 1782, 72 h, read-out: IZ
Pseudomonas aeruginosa [12] = assay: Antimicrobial activity against Pseudomonas aeruginosa MTCC 1688 at 750 ug/ml after 24 hrs by cup plate method; conditions: MTCC 1688, 24 h, read-out: IZ
Aspergillus flavus [13] = assay: Antimicrobial activity against Aspergillus flavus MTCC 1973 at 750 ug/ml after 72 hrs by cup plate method; conditions: MTCC 1973, 72 h, read-out: IZ
Aspergillus niger [14] = assay: Antimicrobial activity against Aspergillus niger MTCC 281 at 1000 ug/ml after 72 hrs by cup plate method; conditions: MTCC 281, 72 h, read-out: IZ
Aspergillus terreus [15] = assay: Antimicrobial activity against Aspergillus terreus MTCC 1782 at 500 ug/ml after 72 hrs by cup plate method; conditions: MTCC 1782, 72 h, read-out: IZ
Staphylococcus aureus [16] = assay: Antimicrobial activity against Staphylococcus aureus ATCC 29513 at 750 ug/ml after 24 hrs by cup plate method; conditions: ATCC 29513, 24 h, read-out: IZ
[17] = Antioxidant activity assessed as metal chelating activity by measuring inhibition of ferrozine-Fe2+ complex formation at 25 to 100 ug/ml
Staphylococcus aureus [18] = assay: Antimicrobial activity against Staphylococcus aureus ATCC 29513 at 1000 ug/ml after 24 hrs by cup plate method; conditions: ATCC 29513, 24 h, read-out: IZ
Aspergillus oryzae [19] = assay: Antimicrobial activity against Aspergillus oryzae MTCC 3567 at 750 ug/ml after 72 hrs by cup plate method; conditions: MTCC 3567, 72 h, read-out: IZ
Aspergillus flavus [20] = assay: Antimicrobial activity against Aspergillus flavus MTCC 1973 at 500 ug/ml after 72 hrs by cup plate method; conditions: MTCC 1973, 72 h, read-out: IZ
Aspergillus oryzae [21] = assay: Antimicrobial activity against Aspergillus oryzae MTCC 3567 at 500 ug/ml after 72 hrs by cup plate method; conditions: MTCC 3567, 72 h, read-out: IZ
Aspergillus flavus [22] = assay: Antimicrobial activity against Aspergillus flavus MTCC 1973 at 1000 ug/ml after 72 hrs by cup plate method; conditions: MTCC 1973, 72 h, read-out: IZ
Aspergillus terreus [23] = assay: Antimicrobial activity against Aspergillus terreus MTCC 1782 at 750 ug/ml after 72 hrs by cup plate method; conditions: MTCC 1782, 72 h, read-out: IZ
Aspergillus niger [24] = assay: Antimicrobial activity against Aspergillus niger MTCC 281 at 750 ug/ml after 72 hrs by cup plate method; conditions: MTCC 281, 72 h, read-out: IZ
Aspergillus oryzae [25] = assay: Antimicrobial activity against Aspergillus oryzae MTCC 3567 at 1000 ug/ml after 72 hrs by cup plate method; conditions: MTCC 3567, 72 h, read-out: IZ
Escherichia coli [26] = assay: Antimicrobial activity against Escherichia coli MTCC 723 at 750 ug/ml after 24 hrs by cup plate method; conditions: MTCC 723, 24 h, read-out: IZ
[27] = tested on: Radical scavenging activity; assay: Antioxidant activity assessed as DPPH radical scavenging activity at 100 ug/ml
[28] = Antioxidant activity assessed as ferric ion reducing activity at 75 ug/ml by FRAP assay

Compound	zone of inhibition at 750 µg/mL (Klebsiella pneumoniae [1])	zone of inhibition at 500 µg/mL (Escherichia coli [2])	zone of inhibition at 1000 µg/mL (Klebsiella pneumoniae [3])	zone of inhibition at 1000 µg/mL (Escherichia coli [4])	zone of inhibition at 500 µg/mL (Aspergillus niger [5])	zone of inhibition at 500 µg/mL (Klebsiella pneumoniae [6])	zone of inhibition at 500 µg/mL (Pseudomonas aeruginosa [7])	zone of inhibition at 500 µg/mL (Staphylococcus aureus [8])	zone of inhibition at 1000 µg/mL (Pseudomonas aeruginosa [10])	zone of inhibition at 1000 µg/mL (Aspergillus terreus [11])	zone of inhibition at 750 µg/mL (Pseudomonas aeruginosa [12])	zone of inhibition at 750 µg/mL (Aspergillus flavus [13])	zone of inhibition at 1000 µg/mL (Aspergillus niger [14])	zone of inhibition at 500 µg/mL (Aspergillus terreus [15])	zone of inhibition at 750 µg/mL (Staphylococcus aureus [16])	Activity [17]	zone of inhibition at 1000 µg/mL (Staphylococcus aureus [18])	zone of inhibition at 750 µg/mL (Aspergillus oryzae [19])	zone of inhibition at 500 µg/mL (Aspergillus flavus [20])	zone of inhibition at 500 µg/mL (Aspergillus oryzae [21])	also measured
Nc1nc(=S)[nH]c2c1C(c1c(-c3ccccc3)[nH]c3ccc(Cl)cc13)C=C(c1ccc(Cl)cc1)O2 (centres undefined)	5 mm	10 mm	8 mm	11 mm	11 mm	5 mm	10 mm	13 mm	11 mm	3 mm	10 mm	4 mm	14 mm	2 mm	13 mm	Active	13 mm	10 mm	5 mm	9 mm	Activity [9]: Active; zone of inhibition at 1000 µg/mL (Aspergillus flavus [22]): 11 mm; zone of inhibition at 750 µg/mL (Aspergillus terreus [23]): 3 mm; zone of inhibition at 750 µg/mL (Aspergillus niger [24]): 11 mm; zone of inhibition at 1000 µg/mL (Aspergillus oryzae [25]): 0 mm; zone of inhibition at 750 µg/mL (Escherichia coli [26]): 10 mm
Nc1nc(=O)[nH]c2c1C(c1c(-c3ccccc3)[nH]c3ccc(Cl)cc13)C=C(c1ccc(Cl)cc1)O2 (centres undefined)	9 mm	9 mm	9 mm	10 mm	12 mm	9 mm	9 mm	13 mm	9 mm	9 mm	9 mm	6 mm	13 mm	9 mm	13 mm	Active	14 mm	9 mm	6 mm	9 mm	Activity [27]: 75.5%; zone of inhibition at 1000 µg/mL (Aspergillus flavus [22]): 4 mm; zone of inhibition at 750 µg/mL (Aspergillus terreus [23]): 9 mm; Activity [28]: Active; zone of inhibition at 750 µg/mL (Aspergillus niger [24]): 12 mm; zone of inhibition at 1000 µg/mL (Aspergillus oryzae [25]): 9 mm; zone of inhibition at 750 µg/mL (Escherichia coli [26]): 10 mm
Nc1n[nH]c2c1C(c1c(-c3ccccc3)[nH]c3ccccc13)C=C(c1ccc(Cl)cc1)O2 (centres undefined)	5 mm	13 mm	5 mm	14 mm	7 mm	5 mm	10 mm	5 mm	10 mm	11 mm	10 mm	9 mm	3 mm	8 mm	4 mm	Active	3 mm	12 mm	9 mm	12 mm	zone of inhibition at 1000 µg/mL (Aspergillus flavus [22]): 9 mm; zone of inhibition at 750 µg/mL (Aspergillus terreus [23]): 6 mm; Activity [28]: Active; zone of inhibition at 750 µg/mL (Aspergillus niger [24]): 5 mm; zone of inhibition at 1000 µg/mL (Aspergillus oryzae [25]): 13 mm; zone of inhibition at 750 µg/mL (Escherichia coli [26]): 13 mm
